{
  "source": "patent US9120745B2",
  "about": "“Triazole compounds that modualte HSP90 activity” (Synta Pharmaceuticals Corp., priority 2007, dated 2015)",
  "key": {"Her2": {"system": "Her2", "test": "Degradation of Her2 in BT-474 cells after treatment with compound (Western blot, Method 1)", "assay_type": "cell-based, human", "settings": "for IC50: treated overnight in DMEM", "experimental": "Human high-Her2 breast carcinoma BT474 (HTB-20), SK-BR-3 (HTB-30) and MCF-7 breast carcinoma (HTB-22) from American Type Culture Collection, VA, USA were grown in Dulbecco's modified Eagle's medium with 4 mM L-glutamine and antibiotics (100 IU/ml penicillin and 100 ug/ml streptomycine; GibcoBRL). To obtain exponential cell growth, cells were trypsinized, counted and seeded at a cell density of 0.5×10^6 cells/ml regularly, every 3 days. All experiments were performed on day 1 after cell passage.\nBT-474 cells were treated with 0.5 μM, 2 μM, or 5 μM of 17AAG (a positive control) or 0.5 μM, 2 μM, or 5 μM of a compound of the invention overnight in DMEM medium. After treatment, each cytoplasmic sample was prepared from 1×10^6 cells by incubation of cell lysis buffer (#9803, cell Signaling Technology) on ice for 10 minutes. The resulting supernatant used as the cytosol fractions are dissolved with sample buffer for SDS-PAGE and run on a SDS-PAGE gel, blotted onto a nitrocellulose membrane by using semi-dry transfer. Non-specific binding to nitrocellulose was blocked with 5% skim milk in TBS with 0.5% Tween at room temperature for 1 hour, then probed with anti-Her2/ErB2 mAb (rabbit IgG, #2242, Cell Signaling) and anti-Tubulin (T9026, Sigma) as housekeeping control protein. HRP-conjugated goat anti-rabbit IgG (H+L) and HRP-conjugated horse anti-mouse IgG (H+L) were used as secondary Ab (#7074, #7076, Cell Signaling) and LumiGLO reagent, 20× Peroxide (#7003, Cell Signaling) was used for visualization."}, "[1]": {"system": "canine osteosarcoma tumor cell line D17", "test": "SCID mouse xenograft model, canine osteosarcoma tumor cell line D17", "assay_type": "in vivo", "settings": "D17 xenograft in SCID mice", "experimental": "(§1) The human multiple myeloma cell line, RPMI 8226 (ATCC #CCL-155), and the canine osteosarcoma cell line, D-17 (ATCC #CCL-183), were obtained from the American Type Culture Collection (ATCC; Manassas, Va., USA). The cells were cultured in growth media prepared with RPMI Media 1640 (4.5 g/L glucose), 10% fetal bovine serum (FBS), 10 mM HEPES, 1% 100× Penicillin-Streptomycin, 1% 100× sodium pyruvate and 1% 100×MEM non-essential amino acids. FBS was obtained from ATCC and all other reagents were obtained from Invitrogen Corp. (Carlsbad, Calif., USA). Cells that had been cryopreserved in liquid nitrogen were rapidly thawed at 37° C. and transferred to a tissue culture flask containing growth media and then incubated at 37° C. in a 5% CO2 incubator. To expand the RPMI 8226 cell line, growth media was changed every 2-3 days and cultures were passaged 1:3 to 1:5 every 3-5 days. When the a 175 cm^2 flask reached approximately 20-40×10(6) total cells, the above passaging process was repeated until sufficient cells had been obtained for implantation into mice. […] The supernatant was aspirated and the cell pellet was resuspended in 10 mL of growth media and the cell number determined using a hemocytometer. […]\n(§2) Tumors were then permitted to develop in vivo until the majority reached 75-250 mm^3 in tumor volume, which required ˜4 weeks following implantation for the RPMI 8226 model and ˜9 weeks for the D-17 model. […] Tumor volumes (V) were calculated by caliper measurement of the width (W), length (L) and thickness (T) of tumors using the following formula: V=0.5236×(L×W×T). Animals were randomized into treatment groups so that the average tumor volumes of each group were similar at the start of dosing. % T/C values, as a measure of efficacy, were determined as follows: • (i) If ΔT>0: % T/C=(ΔT/ΔC)×100 • (ii) If ΔT<0: % T/C=(ΔT/T0)×100 • (iii) ΔT=Change in average tumor volume between start of dosing and the end of study. • (iv) ΔC=Change in average tumor volume between start of dosing and the end of study. • (v) T0=Average tumor volume at start of dosing. […]"}, "[2]": {"system": "human multiple myeloma tumor cell line RPMI 8226", "test": "SCID mouse xenograft model, human multiple myeloma tumor cell line RPMI 8226", "assay_type": "in vivo", "settings": "RPMI 8226 xenograft in SCID mice", "experimental": "as §1, §2"}},
  "data": [
    {"smiles": "C=CCNC1=C2C[C@@H](C)C[C@H](OC)[C@H](O)[C@@H](C)/C=C(\\C)[C@H](OC(N)=O)[C@@H](OC)/C=C\\C=C(/C)C(=O)NC(=CC1=O)C2=O", "note": "[Compound 17AAG, 17-allylamino-17-demethoxygeldanamycin, reference compound]", "values": [
      {"measurement": "degradation of Her2", "setting": "Her2; 0.5 μM, positive control, results not shown", "value": "partial degradation"}
    ]},
    {"smiles": "CC(C)c1cc(-c2nnc(O)n2-c2ccc(N3CCOCC3)nc2)c(O)cc1OP(=O)(O)O", "note": "[Compound 2, 5-hydroxy-4-(5-hydroxy-4-(6-morpholinopyridin-3-yl)-4H-1,2,4-triazol-3-yl)-2-isopropylphenyl dihydrogen phosphate]", "values": [
      {"measurement": "IC50", "setting": "Her2", "value": 90, "unit": "nM"}
    ]},
    {"smiles": "CC(C)c1cc(-c2nnc(O)n2-c2ccc3c(ccn3C)c2)c(O)cc1OP(=O)(O)O", "note": "[Compound 4, sodium 5-hydroxy-4-(5-hydroxy-4-(1-methyl-1H-indol-5-yl)-4H-1,2,4-triazol-3-yl)-2-isopropylphenyl phosphate]", "values": [
      {"measurement": "IC50", "setting": "Her2; phosphate", "value": 182, "unit": "nM"}
    ]},
    {"smiles": "CC(C)c1cc(-c2nnc(O)n2-c2ccc3c(ccn3C)c2)c(O)cc1OP(=O)(O)O", "note": "[Compound 3, 5-hydroxy-4-(5-hydroxy-4-(1-methyl-1H-indol-5-yl)-4H-1,2,4-triazol-3-yl)-2-isopropylphenyl dihydrogen phosphate]", "values": [
      {"measurement": "overt toxicity", "setting": "[1]; 61 mg/kg", "value": "Overt toxicity was not observed"},
      {"measurement": "% T/C value", "setting": "[1]; 61 mg/kg body weight i.v., day 83", "value": 6, "unit": "%"},
      {"measurement": "average bodyweight change relative to the start of the study", "setting": "[1]; 61 mg/kg, day 83", "value": "−0.2", "unit": "%"},
      {"measurement": "IC50", "setting": "Her2", "value": 88, "unit": "nM"},
      {"measurement": "overt toxicity", "setting": "[2]; 100 mg/kg", "value": "Overt toxicity was not observed"},
      {"measurement": "% T/C value", "setting": "[2]; 100 mg/kg body weight i.v., day 46", "value": 15, "unit": "%"},
      {"measurement": "average bodyweight change relative to the start of the study", "setting": "[2]; 100 mg/kg, day 46", "value": 2.1, "unit": "%"}
    ]},
    {"smiles": "CC(C)c1cc(-c2nnc(O)n2-c2ccc3c(c2)CCC3)c(O)cc1OP(=O)(O)O", "note": "[Compound 1, 4-(4-(2,3-dihydro-1H-inden-5-yl)-5-hydroxy-4H-1,2,4-triazol-3-yl)-5-hydroxy-2-isopropylphenyl dihydrogen phosphate]", "values": [
      {"measurement": "IC50", "setting": "Her2", "value": 228, "unit": "nM"}
    ]}
  ]
}
